Structures are written as SMILES. A value given as a limit tells only on which side of the number the result lay.

The IC50 is the concentration needed to halve the response being measured.

The experiment deals with human MRGPRD (Homo sapiens, UniProt Q8TDS7). Put plainly: MRGPRD antagonist activity, IP-One HTRF assay in CHO cells stably expressing human MRGPRD (versus 100 μM β-Alanine agonist). The experiment is classed as cell-based. In short, it runs like this:
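Cells (20,000/well, plated overnight) received antagonist and agonist in buffer with 5.7 mM Tris-HCl, 43 mM NaCl and 50 mM LiCl at pH 8. Incubation ran 1 h at 37 °C, then 1 h at room temperature, before IP-1 HTRF detection. IC50 was fitted from the HTRF ratio, and percent antagonism was taken relative to the maximum efficacy response, given as averages with SEM.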
In general terms: In TR-FRET formats the signal depends on donor and acceptor labels being close together.

Chain of human MRGPRD (Q8TDS7 whole entry): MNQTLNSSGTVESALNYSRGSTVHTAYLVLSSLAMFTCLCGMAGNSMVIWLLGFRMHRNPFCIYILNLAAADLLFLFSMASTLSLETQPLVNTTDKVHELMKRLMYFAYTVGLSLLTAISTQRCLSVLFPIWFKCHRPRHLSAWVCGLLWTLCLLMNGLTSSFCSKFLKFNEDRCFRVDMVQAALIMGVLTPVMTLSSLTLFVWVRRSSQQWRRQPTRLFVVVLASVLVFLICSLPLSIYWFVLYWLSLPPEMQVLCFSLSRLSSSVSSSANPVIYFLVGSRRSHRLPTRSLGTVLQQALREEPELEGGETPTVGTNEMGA

`COc1cccc(-c2nc([C@@H]3CCCN(C(=O)Nc4ccc(F)cc4)C3)n3ccccc23)c1` [Compound 5-10] showed a 50% inhibitory concentration (IC50) of 100 to 500 nM. The figure for `COc1cccc(-c2nc(-c3cccc(C(=O)Nc4ccc(N(C)C)cc4)c3)n3ccccc23)c1` [Compound 8-2] is under 100 nM. Turning to `COc1cccc(-c2nc([C@@H]3CCCN(C(=O)Nc4ccn(C)n4)C3)n3ccccc23)c1` [Compound 5-44], the half-inhibitory concentration (IC50) was under 100 nM.

`COc1cccc(-c2nc(C3CCCN(C(=O)Cc4ccccc4OC)C3)n3c(OC)cccc23)c1` (stereo not shown) [Compound 15-1, 1-(3-(5-methoxy-1-(3-methoxyphenyl)imidazo[1,5-a]pyridin-3-yl)piperidin-1-yl)-2-(2-methoxyphenyl)ethan-1-one] registered an IC50 of 500 to 1000 nM. The figure for `COc1cccc(-c2nc([C@@H]3CCCN(C(=O)Nc4nocc4C)C3)n3ccccc23)c1` [Compound 5-66] is under 100 nM; for `COc1cccc(-c2nc(C3CCCN3C(=O)Nc3ccccc3F)n3ccccc23)c1` (stereo not shown) [Compound 22-1, N-(2-fluorophenyl)-2-(1-(3-methoxyphenyl)imidazo[1,5-a]pyridin-3-yl)pyrrolidine-1-carboxamide] it is 1000 to 3000 nM; for `COc1cccc(-c2nc([C@@H]3CCCN(C(=O)Nc4noc(C)c4C)C3)n3ccccc23)c1` [Compound 1-33] it is under 100 nM. The molecule `COc1cccc(-c2nc(C3CCCN(C(=O)Nc4ccccc4C)C3)n3ccccc23)c1` (stereo not shown) [Compound 3-4] displayed an IC50 of 1000 to 3000 nM. In turn, `CN(C)c1ccc(NC(=O)N2CCC[C@@H](c3nc(-c4cccc(Cl)c4)c4ccccn34)C2)cc1` [Compound 10-22] had a half-inhibitory concentration (IC50) of 500 to 1000 nM.

For `CN(C)c1ccc(NC(=O)N2CCC[C@@H](c3nc(-c4cnn(C(F)F)c4)c4ccccn34)C2)cc1` [Compound 10-72], the IC50 fell in the range of 100 to 500 nM. On to `CNC(=O)N1CCC[C@H](c2nc(-c3cccc(OC)c3)c3ccccn23)C1` [Compound 2-2], for which the IC50 was over 3000 nM.

As to `CN(C)c1ccc(NC(=O)N2CCC[C@@H](c3nc(-c4ccc5c(c4)CCC5)c4ccccn34)C2)cc1` [Compound 10-26], the IC50 was 500 to 1000 nM. With `COC/C=C/c1nc([C@@H]2CCCN(C(=O)Nc3ccc(N(C)C)cc3)C2)n2ccccc12` [Compound 10-39], the IC50 was over 3000 nM. `COc1cccc(-c2nc([C@@H]3CCCN(C(=O)Nc4ccccc4OC(F)(F)F)C3)n3ccccc23)c1` [Compound 5-13] registered an IC50 of 500 to 1000 nM.

For the molecule `CN(C)c1ccc(NC(=O)N2CCC[C@@H](c3nc(-c4ccc(OC(F)(F)F)cc4)c4ccccn34)C2)cc1` [Compound 10-14], the concentration for half-maximal inhibition (IC50) was in the range of 1000 to 3000 nM. Regarding `CN(C)c1ccc(NC(=O)N2CCC[C@@H](c3nc(-c4cnn(-c5ccccc5)c4)c4ccccn34)C2)cc1` [Compound 10-63], the IC50 was in the range of 1000 to 3000 nM.

Consider `O=C(Nc1ccccc1F)N1CCCC(c2nc(-c3ccncc3)c3ccccn23)C1` (stereo not shown) [Compound 11-10], for which the IC50 was 1000 to 3000 nM.

Molecule `COc1cccc(-c2nc([C@@H]3CCCN(C(=O)Nc4ccc5nc(C(C)(C)C)[nH]c5c4)C3)n3ccccc23)c1` [Compound 5-42] returned an IC50 of under 100 nM. `COc1cccc(-c2nc(C3CCCN(C(=O)c4ccc(F)cc4F)C3)n3ccccc23)c1` (stereo not shown) [Compound 12-11]: the concentration for half-maximal inhibition (IC50) lay within 500 to 1000 nM. The figure for `COc1cccc(-c2nc(C3CCCN(S(=O)(=O)c4ccccc4F)C3)n3ccccc23)c1` (stereo not shown) [Compound 16-1] is 500 to 1000 nM; for `COc1cccc(-c2nc([C@@H]3CCCN(C(=O)NC4CCCCC4)C3)n3ccccc23)c1` [Compound 5-43] it is 100 to 500 nM. On to `CCc1ccccc1NC(=O)N1CCCC(c2nc(-c3cccc(OC)c3)c3ccccn23)C1` (stereo not shown) [Compound 3-15], for which the IC50 is over 3000 nM. The figure for `COc1cccc(-c2nn(C3CCCN(C(=O)Nc4cccc(N(C)C)c4)C3)c3ncccc23)c1` (stereo not shown) [Compound 9-2] is under 100 nM. As for `COc1cccc(-c2nc(C3CCCN(C(=O)c4ccc(C)cc4C)C3)n3ccccc23)c1` (stereo not shown) [Compound 12-8], the IC50 is 1000 to 3000 nM. On to `COc1cccc(-c2nc([C@@H]3CCCN(C(=O)Nc4ccc5ncsc5c4)C3)n3ccccc23)c1` [Compound 5-65], for which the IC50 is under 100 nM. For the molecule `COc1cccc(-c2nc(C3CCCN(C(=O)c4ccc(F)c(F)c4)C3)n3ccccc23)c1` (stereo not shown) [Compound 12-12], the IC50 was 500 to 1000 nM. The figure for `COc1cccc(-c2nc([C@@H]3CCCN(C(=O)Nc4ccccc4CN(C)C)C3)n3ccccc23)c1` [Compound 1-21] is 500 to 1000 nM; for `COc1cccc(-c2nc(C3CCCN(C(=O)Nc4ccccc4F)C3)n3cccc(OC)c23)c1` (stereo not shown) [Compound 19-1] it is over 3000 nM; for `CN(C)c1ccc(NC(=O)N2CCC[C@@H](c3nc(-c4cccc(O)c4)c4ccccn34)C2)cc1` [Compound 10-5] it is 500 to 1000 nM.

For `CN(C)c1ccc(NC(=O)N2CCC[C@@H](c3nc(-c4ccccc4CC#N)c4ccccn34)C2)cc1` [Compound 10-65], the IC50 lay within 500 to 1000 nM. Regarding `COc1cccc(-c2nc([C@@H]3CCCN(C(=O)Nc4cc(C#N)on4)C3)n3ccccc23)c1` [Compound 5-69], the IC50 is under 100 nM. Molecule `CN(C)c1ccc(NC(=O)N2CCC[C@H](c3nc(-c4cccc(F)c4)c4ccccn34)C2)cc1` [Compound 10-28] gave a 50% inhibitory concentration (IC50) of 1000 to 3000 nM. The figure for `COc1cccc(-c2nc(C3CCCN(C(=O)NCC4CC4)C3)n3ccccc23)c1` (stereo not shown) [Compound 3-14] is over 3000 nM; for `COc1cccc(-c2nc(C3CCCN(C(=O)Nc4cccc(N(C)C)c4)C3)n3ccccc23)c1` (stereo not shown) [Compound 3-24] it is 100 to 500 nM; for `COc1cccc(-c2nc(C3CCCN(S(=O)(=O)Cc4cccc(F)c4)C3)n3ccccc23)c1` (stereo not shown) [Compound 16-4] it is 100 to 500 nM.

As to `COc1cccc(-c2nn([C@@H]3CCCN(C(=O)Nc4cccc(N(C)C)c4)C3)c3ncccc23)c1` [Compound 20-2], the 50% inhibitory concentration (IC50) was under 100 nM. The molecule `COc1cccc(-c2nc(C3CCCN(C(=O)c4ccc(F)cc4C)C3)n3ccccc23)c1` (stereo not shown) [Compound 12-10] registered an IC50 of 1000 to 3000 nM. As to `COc1cccc(-c2nc(C3CCCN(C(=O)Nc4ccc(Cl)cc4)C3)n3ccccc23)c1` (stereo not shown) [Compound 3-20], the IC50 fell in the range of 500 to 1000 nM. In the case of `CCOc1cccc(NC(=O)N2CCC[C@@H](c3nc(-c4cccc(OC)c4)c4ccccn34)C2)c1` [Compound 1-24], the 50% inhibitory concentration (IC50) is under 100 nM.

In turn, `COc1cccc(-c2nc(C3CCCN(C(=O)Nc4ccc(N(C)C)cc4)C3)n3ccccc23)c1` (stereo not shown) [Compound 3-25, N-(4-(dimethylamino)phenyl)-3-(1-(3-methoxyphenyl)imidazo[1,5-a]pyridin-3-yl)piperidine-1-carboxamide] came in with an IC50 of under 100 nM.

Molecule `COc1cccc(-c2nc([C@@H]3CCCN(C(=O)Nc4cccc(F)c4)C3)n3ccccc23)c1` [Compound 1-14] came in with an IC50 of 100 to 500 nM. For `CN(C)c1ccc(NC(=O)N2CCC[C@@H](c3nc(-c4cccc(C(F)(F)F)c4)c4ccccn34)C2)cc1` [Compound 10-11], the IC50 lay in the range of 500 to 1000 nM. The figure for `COc1cccc(-c2nc(C3CCCN(C(=O)Nc4ccc(C)cc4F)C3)n3ccccc23)c1` (stereo not shown) [Compound 5-3] is 500 to 1000 nM; for `CN(C)c1ccc(NC(=O)N2CCC[C@@H](c3nc(-c4ccc(Cl)cc4)c4ccccn34)C2)cc1` [Compound 10-19] it is 500 to 1000 nM. In turn, `COc1cccc(-c2nc([C@@H]3CCCN(C(=O)Nc4ccc(CO)cc4)C3)n3ccccc23)c1` [Compound 5-7] yielded an IC50 of under 100 nM. The figure for `COCCCc1nc([C@@H]2CCCN(C(=O)Nc3ccc(N(C)C)cc3)C2)n2ccccc12` [Compound 10-41] is 1000 to 3000 nM; for `COc1cccc(-c2nn([C@@H]3CCCN(C(=O)Nc4ccc(N(C)C)cc4)C3)c3ncccc23)c1` [Compound 20-1, (R)—N-(4-(dimethylamino)phenyl)-3-(3-(3-methoxyphenyl)-1H-pyrazolo[3,4-b]pyridin-1-yl)piperidine-1-carboxamide] it is under 100 nM; for `COc1cccc(-c2nc([C@@H]3CCCN(C(=O)Nc4ccccc4)C3)n3ccccc23)c1` [Compound 3-27] it is under 100 nM. The figure for `COc1cccc(-c2nc([C@H]3CCCN(C(=O)Cc4cccc(F)c4)C3)n3ccccc23)c1` [Compound 12-16] is 1000 to 3000 nM; for `COc1cccc(-c2nc([C@@H]3CCCN(C(=O)NCCN(C)C)C3)n3ccccc23)c1` [Compound 1-29] it is 500 to 1000 nM; for `COc1cccc(-c2nc([C@@H]3CCCN(C(=O)Nc4ccc5c(cnn5C)c4)C3)n3ccccc23)c1` [Compound 1-32] it is under 100 nM. The figure for `COc1cccc(-c2nc(C3CCCN(C(=O)Nc4ccccc4F)C3)n3ccc(OC)cc23)c1` (stereo not shown) [Compound 19-2] is over 3000 nM; for `COc1cccc(-c2nc([C@H]3CCCN(C(=O)Nc4ccccc4)C3)n3ccccc23)c1` [Compound 3-29] it is 1000 to 3000 nM; for `COCCNC(=O)N1CCC[C@@H](c2nc(-c3cccc(OC)c3)c3ccccn23)C1` [Compound 5-41] it is 100 to 500 nM. On to `COc1cccc(-c2nc([C@@H]3CCCN(C(=O)Nc4ccc(CN(C)C)cc4)C3)n3ccccc23)c1` [Compound 1-26], for which the IC50 was 100 to 500 nM. `COc1cccc(-c2nc([C@@H]3CCCN(C(=O)Nc4ccccc4CO)C3)n3ccccc23)c1` [Compound 5-28] displayed an IC50 of under 100 nM. The figure for `CCOc1ccc(NC(=O)N2CCC[C@@H](c3nc(-c4cccc(OC)c4)c4ccccn34)C2)cc1` [Compound 1-25] is under 100 nM.

As to `COc1cccc(-c2nc([C@@H]3CCCN(C(=O)Nc4ccccc4F)C3)n3ccccc23)c1` [Compound 5-12], the IC50 was under 100 nM.

Molecule `CN(C)c1ccc(NC(=O)N2CCC[C@@H](c3nc(-c4cn(S(=O)(=O)c5ccccc5)c5ccccc45)c4ccccn34)C2)cc1` [Compound 10-54] yielded a 50% inhibitory concentration (IC50) of 500 to 1000 nM. The figure for `COc1cccc(NC(=O)N2CCCC(c3nc(-c4cccc(OC)c4)c4ccccn34)C2)c1` (stereo not shown) [Compound 3-16] is 100 to 500 nM; for `COc1cccc(-c2nc(C3CCCN(C(=O)Nc4ccc(C)c(C)c4)C3)n3ccccc23)c1` (stereo not shown) [Compound 3-23] it is 100 to 500 nM.

(Values after US20240246980A1, “MODULATORS OF MAS-RELATED G-PROTEIN RECEPTOR D AND RELATED PRODUCTS AND METHODS” (Escient Pharmaceuticals, Inc., priority 2022, published 2024).)
